Here are results for two compounds from publication PMC7044277 (Nature Communications, 2020).

“And” between values parts separate entries of the source, which are not always exact repeats. Equal values may be shown once.

In one experiment the target is T1, 5HT4 (Homo sapiens, UniProt Q13639).
T1 construct: expressed in transfected cells; host or cells: HTLA cells expressing TEV-fused β-arrestin2
Briefly: β-arrestin2 recruitment (Tango). Type of experiment: cell-based. The following applies: Fig_S10n, drug alone.

The subject of experiment [1] is serotonin receptor (subtype not given; reference agonist serotonin). Kind of experiment: β-arrestin2 recruitment (Tango), agonist activity, source data Fig_S10l. In kind it is cell-based, human. The conditions noted are these: drug alone. Background: Recruitment of arrestin is a read-out of receptor activation apart from second messengers.
The test system of experiment [2] is serotonin receptor of Fig_S10g (subtype not named). Kind of experiment: β-arrestin2 recruitment (Tango), agonist activity, panel Fig_S10g (serotonin as reference; receptor not given). In kind it is cell-based, human.
The next experiment deals with 320 non-olfactory GPCRs. Type of experiment: cell-based. Also on record: GPCRome screening signal at PTGIR / GPCRome screening signal at PTH1R / GPCRome screening signal at PTH2R / GPCRome screening signal at QRFP / GPCRome screening signal at RXFP2 / GPCRome screening signal at RXFP3 / GPCRome screening signal at RXFP4 / GPCRome screening signal at S1PR2 / GPCRome screening signal at S1PR3 / GPCRome screening signal at S1PR4 / GPCRome screening signal at S1PR5 / GPCRome screening signal at SCTR / GPCRome screening signal at SSTR2 / GPCRome screening signal at SSSTR / GPCRome screening signal at SSTR4 / GPCRome screening signal at SSTR5 / GPCRome screening signal at SUCNR1 / GPCRome screening signal at TA1 / GPCRome screening signal at TAAR2 / GPCRome screening signal at TAAR5 / GPCRome screening signal at TAAR6 / GPCRome screening signal at TAAR8 / GPCRome screening signal at TACR1 / GPCRome screening signal at TACR2 / GPCRome screening signal at TACR3 / GPCRome screening signal at TBXA2R / GPCRome screening signal at TSHR / GPCRome screening signal at UTS2R / GPCRome screening signal at VIPR2 / GPCRome screening signal at GPR68 no V2 Tail / GPCRome screening signal at GRM2 / GPCRome screening signal at GRM3: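 fold over basal response of each receptor without drug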. The following applies: Fig_5f, single replicate values.

T1 sequence (Q13639 whole entry, the tested form may be a part): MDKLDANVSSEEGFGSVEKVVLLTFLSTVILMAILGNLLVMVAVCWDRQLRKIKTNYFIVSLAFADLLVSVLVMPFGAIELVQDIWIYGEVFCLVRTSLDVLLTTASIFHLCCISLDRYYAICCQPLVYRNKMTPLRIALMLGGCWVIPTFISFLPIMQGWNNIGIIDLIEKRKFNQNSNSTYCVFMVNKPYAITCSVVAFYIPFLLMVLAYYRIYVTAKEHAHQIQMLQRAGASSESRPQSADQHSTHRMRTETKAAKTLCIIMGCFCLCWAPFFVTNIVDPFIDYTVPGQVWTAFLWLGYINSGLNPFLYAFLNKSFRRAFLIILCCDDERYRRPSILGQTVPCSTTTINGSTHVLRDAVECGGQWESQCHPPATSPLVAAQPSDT

As for `NCCc1c[nH]c2ccc(O)cc12` [serotonin], the “β-arrestin2 recruitment response (dose-response source data, replicate values)” value at 5HT4 (Log[Drug] -6.52) is 4.364 and 3.213 and 1.27 and 4.689 and 5.849 and 4.639 and 0.7041 and 1.028 and 0.8286; on 5HT4 (Log[Drug] -7), 0.4502 and 1.04 and 0.7749 and 1.703 and 3.757 and 0.2045 and 0.7898; at 5HT4 (Log[Drug] -7.52), 0.2639 and 1.123 and 0.6731 and 1.44 and 0.8323 and -0.173 and -0.1455 and 0.1779; at 5HT4 (Log[Drug] -8), 0.909 and 1.368 and 1.768 and 1.945 and 1.002 and 4.528 and -0.04204 and 0.2773 and -0.04931; on 5HT4 (Log[Drug] -8.52), 1.014 and 0.4607 and 1.27 and 2.026 and 2.149 and 0.7135 and 0.536; at 5HT4 (Log[Drug] -9), 4.112 and 0.5135 and 0.7781 and 0.7219 and 2.151 and -0.2021 and -0.04689 and 0.1787. Further, the “β-arrestin2 recruitment response (dose-response source data, replicate values)” value was -0.1745 and 0.2987 and 0.5551 and 1.654 and 2.192 and 1.098 and -0.3371 and 0.1099 at 5HT4 (Log[Drug] -9.52); 0.07451 and 0.7799 and 1.035 and 0.7688 and 1.653 and 0.865 and -0.1787 and 0.1471 on 5HT4 (Log[Drug] -10); -0.001242 and 0.2372 and 0.7047 and -0.005208 and 0.949 and 0.8156 and -0.3363 and -0.2741 at 5HT4 (Log[Drug] -10.52); 0.09934 and 0.2831 and 0.9059 and 0.201 and 0.5729 and -0.1083 and 0.6362 and -0.2773 on 5HT4 (Log[Drug] -11); -0.1788 and 1.011 and 0.1838 and 2.165 and 0.3594 and 0.526 and -0.2336 and -0.308 and 0.3767 at 5HT4 (Log[Drug] -11.52); 0.2813 and -0.1521 and 0.7458 and 0.6208 and 0.6615 and -0.1358 and -0.3662 on 5HT4 (Log[Drug] -12). Further, the “response, Fig_S10l, replicate values” in experiment [1] (Log[Drug] -6.52) is 89.1482 and 68.7936 and 58.4442; in experiment [1] (Log[Drug] -7) it was 66.8775 and 42.3868 and 35.3098 and 60.5263 and 52.6042 and 58.638 and 24.4765 and 22.6408 and 30.0813; in experiment [1] (Log[Drug] -7.52), 68.5906 and 51.7176 and 27.5973 and 17.0437 and 36.727 and -5.864 and 8.121 and 12.6341 and 15.0506; in experiment [1] (Log[Drug] -8), 24.3997 and 25.1743 and 11.0247 and 13.4188 and 3.861 and -8.27 and 5.486 and 9.516 and -0.3454; in experiment [1] (Log[Drug] -8.52), 28.2691 and 10.8991 and 0.6654 and 20.8515 and 4.218 and 3.753 and -2.601 and -10.3369 and 7.58; in experiment [1] (Log[Drug] -9), 8.291 and 7.398 and -4.407 and 28.3765 and 10.5666 and -13.7434 and -1.811 and 21.0925 and -2.254. The “response, Fig_S10l, replicate values” was 15.1454 and -8.903 and -7.678 and 11.6014 and -2.921 and -5.371 and 3.959 and 0.2537 and -8.706 in experiment [1] (Log[Drug] -9.52); 10.6015 and 17.2844 and 5.47 and 9.7774 and -6.372 and -8.832 and 0.1972 and 15.6666 and 6.603 in experiment [1] (Log[Drug] -10); 14.0658 and 3.099 and 4.084 and 6.9236 and -15.9908 and -3.571 and 14.7648 and -9.016 and -4.897 in experiment [1] (Log[Drug] -10.52); 11.925 and 9.507 and -4.609 and 40.988 and 1.279 and -23.0265 and -4.413 and 0.5655 and 2.993 in experiment [1] (Log[Drug] -11); 29.1466 and 5.5415 and 2.1791 and 13.0085 and 1.916 and 6.51 and 8.732 and 12.6601 in experiment [1] (Log[Drug] -11.52); 12.8871 and 8.151 and 29.2053 and 0.5174 and 13.376 and 13.9134 and 1.483 and -15.396 in experiment [1] (Log[Drug] -12). The “response, single replicate of concentration-response curve” value in experiment [2] (Log[Drug] -8, drug alone) is 25.2624 and 2.418 and -0.9864 and -1.203; in experiment [2] (Log[Drug] -8.52, drug alone), 25.8336 and 6.58 and 3.873 and 4.678 and -1.548 and 7.766 and 9.13 and -0.6727 and -11.3553 and -6.415 and -5.731 and -10.9031; in experiment [2] (Log[Drug] -9, drug alone), 10.8032 and 1.6368 and -4.3076 and 0.1698 and 3.269 and 3.74 and 1.924 and 0.05671 and -7.517 and 1.634 and 12.5106 and -9.089; in experiment [2] (Log[Drug] -9.52, drug alone), 7.867 and 1.536 and -2.919 and -4.095 and 0.1351 and -9.62 and 29.2497 and 12.5325 and 5.929 and 12.1786 and -19.689 and -3.037; in experiment [2] (Log[Drug] -10, drug alone) it was 13.3168 and 3.318 and 3.578 and -7.852 and 7.397 and -7.7805 and -4.613 and 22.4428 and -0.2757 and -9.974 and -10.1372 and -5.303; in experiment [2] (Log[Drug] -10.52, drug alone), -2.613 and 10.3391 and -3.556 and 0.8157 and -5.415 and -4.823 and 18.6922 and -6.036 and 3.52 and 5.655 and -15.149 and -15.6819. In addition, the “response, single replicate of concentration-response curve” value is 7.973 and 11.7127 and -1.724 and -0.1913 and 3.65 and 5.648 and -0.1936 and 0.6531 and 0.8995 and 27.444 and 32.0015 and 10.1517 in experiment [2] (Log[Drug] -11, drug alone); 21.6155 and 10.2673 and -4.337 and 2.007 and 0.7121 and -12.0608 and 20.4384 and 18.8721 and -0.9836 and 23.865 and -4.732 and 10.0527 in experiment [2] (Log[Drug] -11.52, drug alone); 27.8009 and 4.255 and 0.08804 and -4.341 and 18.1882 and 2.442 and 25.1178 and 36.1309 and 7.918 and 30.4435 and -6.616 and 17.9883 in experiment [2] (Log[Drug] -12, drug alone).

As for `CCOc1ccccc1CCC(C)NCC1(O)CCCCC1.Cl` (racemic) [Fig_5f], the “GPCRome screening signal at GPR68 no V2 Tail” value in the experiment with 320 non-olfactory GPCRs (receptor GPR68 no V2 Tail) is 1.613 and 0.9285 and 0.7993 and 0.365. Further, the “GPCRome screening signal at QRFP” value in the experiment with 320 non-olfactory GPCRs (receptor QRFP) is 1.818 and 1.297 and 0.5847 and 0.9504. Also, in the experiment on 320 non-olfactory GPCRs (receptor SSSTR), the “GPCRome screening signal at SSSTR” value is 1.07 and 0.3317 and 0.4095 and 0.9006.
